# In PubChem BioAssay AID1963828 (Molecular Pharmacology Branch, DTP, NCI, 2024):
# Tested on: 991263-137-R1-J2-PDC complex spheroid viability
# Assay: Anticancer human tumor 991263-137-R1-J2-PDC patient-derived colon adenocarcinoma cell line growth inhibition [POLQ]
# Conditions: for IC50: curve of first compound; for viability, T/C: stronger effect = lower value
# Experimental: Multicellular complex tumor spheroid response to Polymerase (POL) inhibitors (novobiocin, ART-558, RP6685) in combination with a variety of drugs and investigational agents in selected tumor cell lines
# The POL inhibitors (novobiocin, ART-558, and RP6685) were evaluated both individually and in combination with standard of care and investigational anticancer small molecules within a complex spheroid model of solid tumors. . Complex spheroids include a stromal component modeled by human endothelial cells (HUVEC) and fibroblasts modeled by human mesenchymal stem cells (MSCs). The concentration ranges selected for each drug and investigational agent were based upon clinically achievable concentrations if the clinical Cmax of the agent was known.
# Compounds. The drugs and investigational agents: novobiocin (NSC847541), ART-558 (NSC835418), RP-6685 (NSC848927), peposertib (NSC802822), ceralasertib (NSC780249), elimusertib (NSC800525), camonsertib (NSC841442), AZD-1390 (NSC803789), olaparib (NSC753686), talazoparib (NSC767125), rucaparib (NSC756644), sotorasib (NSC818433), MRTX-1133 (NSC836407), SN-38 (NSC673596), topotecan (NSC609699), epotoside (NSC141540), doxorubicin (NSC123127), gemcitabine (NSC613327), 5-fluorouracil (NSC19893), paclitaxel (NSC125973), vemurafenib (NSC761431), MSA-2 (NSC828583), SN-011 (NSC837082), adavosertib (NSC754352), prexasertib (NSC758257), carboplatin (NSC241240) and oxaliplatin (NSC266046), were obtained from the National Cancer Institute (NCI) Developmental Therapeutics Program Chemical Repository (21). The FDA-approved anticancer drug set is available from the Developmental Therapeutics Program at https://dtp.cancer.gov/organization/dscb/obtaining/. […] The stock solutions were prepared in dimethyl sulfoxide (DMSO, Sigma-Aldrich, St. Louis, MO, cat. D2650), except for the platinum compounds which were prepared in saline (Quality Biological, Gaithersburg, MD, cat. 114-055-101), at 800-fold the tested concentration and stored at -70 degrees C prior to their use. All drugs and investigational agents were tested over a range starting from a high concentration at or near the clinical Cmax and decreasing in half-log increments. If the clinical Cmax for an agent had not been determined, the highest concentration tested was 10 microM, except for SN-38, which was tested at a high concentration of 1 microM.
# Cell Culture. All cells were maintained in an incubator at 37 degrees C and 5% CO2 with 95% humidity. The PDC lines were cultured according to standard operating procedures established by the NCI PDMR (https://pdmr.cancer.gov). Table 3 of the manuscript, lists the cell lines along with the number of the three cell types plated to form the mct-spheroids and media for tumor cell growth. After thawing, all PDC lines, except 997537-175-T-J1-PDC and 415267-285-R-J2-PDC, were cultured in Matrigel-coated flasks prepared with a working solution of 1X Ham's F-12 nutrient mix, without supplementation (Thermo Fisher Scientific, cat. 11765054), 100 U/mL penicillin-streptomycin (Thermo Fisher Scientific, cat. 15140122), and 2.5% Matrigel (Corning Inc., Corning, NY, cat. 354248) for the first three passages. The two PDC lines 997537-175-T-J1-PDC and 415267-285-R-J2-PDC were cultured on uncoated flasks. The 857933-349-R-J2-PDC line was cultured in 6C/Colon 1B media containing advanced DMEM/F-12 (Thermo Fisher Scientific, cat. 12634028), 10 mM HEPES (Thermo Fisher Scientific, cat. 15630080), 1X GlutaMAX supplement (Thermo Fisher Scientific, cat. 35050061), 0.1 mg/mL primocin (InvivoGen, San Diego, CA, cat. ant-pm-2), 10% defined fetal bovine serum, heat inactivated (HyClone Laboratories Inc., Logan, UT, cat. SH30070.03HI), 50% L-WRN conditioned media (ATCC, cat. CRL-3276), 1.25 mM N-Acetyl-L-cysteine (Sigma-Aldrich, cat. A9165), 10 mM nicotinamide (Sigma-Aldrich, cat. N0636), 1X B-27 supplement (Thermo Fisher Scientific, cat. 17504044), 1X N-2 supplement (Thermo Fisher Scientific, cat. […]
# 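Note: spheroids exposed to compounds for 7 days before readout.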
# 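Throughout, for viability, T/C: 100% = DMSO vehicle control viability.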
structure (smiles),measurement,setting,value
CCCS(=O)(=O)Nc1ccc(F)c(C(=O)c2c[nH]c3ncc(-c4ccc(Cl)cc4)cc23)c1F + COC1C(OC(N)=O)C(O)C(Oc2ccc3c(O)c(NC(=O)c4ccc(O)c(CC=C(C)C)c4)c(=O)oc3c2C)OC1(C)C,IC50,second compound 0.0316 µM,> 10 µM
same,IC50,second compound 0.1 µM,> 10 µM
same,IC50,second compound 0.316 µM,> 10 µM
same,IC50,second compound 1 µM,> 10 µM
same,IC50,second compound 3.16 µM,> 10 µM
same,IC50,second compound 10 µM,> 10 µM
same,"viability, T/C","second compound 0.0316 µM, first compound 0.0316 µM",110%
same,"viability, T/C","second compound 0.0316 µM, first compound 0.1 µM",98.7%
same,"viability, T/C","second compound 0.0316 µM, first compound 0.316 µM",106%
same,"viability, T/C","second compound 0.0316 µM, first compound 1 µM",105%
same,"viability, T/C","second compound 0.0316 µM, first compound 3.16 µM",102%
same,"viability, T/C","second compound 0.0316 µM, first compound 10 µM",104%
same,"viability, T/C","second compound 0.1 µM, first compound 0.0316 µM",82%
same,"viability, T/C","second compound 0.1 µM, first compound 0.1 µM",109%
same,"viability, T/C","second compound 0.1 µM, first compound 0.316 µM",97.5%
same,"viability, T/C","second compound 0.1 µM, first compound 1 µM",85.5%
same,"viability, T/C","second compound 0.1 µM, first compound 3.16 µM",129%
same,"viability, T/C","second compound 0.1 µM, first compound 10 µM",109%
same,"viability, T/C","second compound 0.316 µM, first compound 0.0316 µM",96.9%
same,"viability, T/C","second compound 0.316 µM, first compound 0.1 µM",94.9%
same,"viability, T/C","second compound 0.316 µM, first compound 0.316 µM",121%
same,"viability, T/C","second compound 0.316 µM, first compound 1 µM",130%
same,"viability, T/C","second compound 0.316 µM, first compound 3.16 µM",97.9%
same,"viability, T/C","second compound 0.316 µM, first compound 10 µM",108%
same,"viability, T/C","second compound 1 µM, first compound 0.0316 µM",105%
same,"viability, T/C","second compound 1 µM, first compound 0.1 µM",103%
same,"viability, T/C","second compound 1 µM, first compound 0.316 µM",121%
same,"viability, T/C","second compound 1 µM, first compound 1 µM",95.9%
same,"viability, T/C","second compound 1 µM, first compound 3.16 µM",105%
same,"viability, T/C","second compound 1 µM, first compound 10 µM",84.8%
same,"viability, T/C","second compound 3.16 µM, first compound 0.0316 µM",102%
same,"viability, T/C","second compound 3.16 µM, first compound 0.1 µM",124%
same,"viability, T/C","second compound 3.16 µM, first compound 0.316 µM",99.7%
same,"viability, T/C","second compound 3.16 µM, first compound 1 µM",105%
same,"viability, T/C","second compound 3.16 µM, first compound 3.16 µM",89.9%
same,"viability, T/C","second compound 3.16 µM, first compound 10 µM",97.6%
same,"viability, T/C","second compound 10 µM, first compound 0.0316 µM",94.2%
same,"viability, T/C","second compound 10 µM, first compound 0.1 µM",118%
same,"viability, T/C","second compound 10 µM, first compound 0.316 µM",95.2%
same,"viability, T/C","second compound 10 µM, first compound 1 µM",111%
same,"viability, T/C","second compound 10 µM, first compound 3.16 µM",113%
same,"viability, T/C","second compound 10 µM, first compound 10 µM",110%
